Results from US8273372B2, “Extracellular matrix composition” (Restoration of Appearance & Function Trust, priority 2006, dated 2012).
Like-named read-outs stand apart in the source and are kept apart here.

Assays:
HPMEC = test: Cell adhesion assay on cross-linked matrix protein coatings (crystal violet); assay type: cell-based, human; settings: coating cross-linked with glutaraldehyde or EDC dilution range, 1 hr adhesion; FIG. 5
Procedure: HPMEC were isolated from human placentae obtained with consent and cultured according to previously published methods (Leach et al. (1994) Placenta 15(4): 355-64; Dye et al. (2001) Microvasc Res 62(2): 94-113; Dye et al. (2004) Faseb J 18(1): 125-7). Established cultures are phenotypically stable for typically up to 25 passages at a split ratio of 1:3. Cultures are maintained in standard growth medium (M199+5% PDPDS+2% HIFBS). Cultures were maintained in a humidified 5% CO2 and 37° C. atmosphere. For biocompatibility assessment of scaffolds, harvested cells were resuspended in high growth medium (M199+5% HIBFS). For cell adhesion assays harvested cells were resuspended in M199+0.5% BSA. […]
The well was washed with a sufficient number of washes to reduce residual concentration to below cytotoxic limits (5×100 μl per well) with PBS, replaced with 50 μl/well BSA/NaHCO3 (covalent reagent blocking step) and incubated for 1 hr at 37° C. Washing was performed twice with sterile PBS and the plate was stored with 100 μl/well PBS until the cells were ready.
Accutase was thawed and M199/BSA was prepared. […] The supernatant was aspirated and the cells were resuspended in 1-2 ml M199/BSA as appropriate, titurated, and cell density was counted (1:10 in 4% trypan blue/PBS), aiming for around 2×10^6/ml.
The number of cells required for the assay was calculated using 1-2×10^4 cells/well. […]

[1] = test system: human dermal fibroblast cultures; test: Toxicity assay, MTS/PMS assay of cell viability; assay type: cell-based
Procedure: Culture medium was aspirated from confluent culture and washed with versene. […] Trypsin was neutralised with an equal volume of growth medium, the cell suspension was transferred to a universal tube. The culture flask was washed with PBS and transferred to the universal tube. Centrifugation was performed at 200×g for 7 minutes. Cells were resuspended in 1-2 ml growth medium.
Cells were seeded (10^5/well) into 24-well plates in 0.5 ml DMEM growth medium/well and incubated at 37° C. in a humidified 5% CO2 incubator, until the cells adhered and spread, typically overnight. A single well blank/plate was retained for a reagent control.
Culture medium was aspirated from cultures and replaced with: a weighed sample of scaffold (20 mg/well) in fresh serum-free DMEM; serum-free DMEM with a range of dilutions of glutaraldehyde or EDC as cross-linking agents. Cells were incubated at 37° C. in humidified 5% CO2 for 1 hr.
The medium and scaffold material was removed from cells and replaced with fresh maintenance medium (DMEM with 2% HIFBS) and returned to the incubator for 2 to 22 hours. Direct toxicity measurements were taken at 2, 14 and 20 hours. For exposure to matrices, incubation was for 20 hrs. The same medium was added to an empty control well for a reagent blank.
Aliquots of MTS & PMS stock solutions were thawed and a working MTS/PMS reagent was prepared (2 ml MTS+100 μl PMS). MTS/PMS reagent was added to all wells (50 μl/well) and returned to the incubator for 2-4 hours, until colour developed in the medium over control cultures without toxic challenge.
100 μl aliquots of medium were transferred to a 96 well ELISA plate for spectrophotometric measurement at 495 nm.
Matrices of 1% fibrin/1% alginate, foamed & lyophilised, were cross-linked with EDC or glutaraldehyde and washed 5 times in glycine or PBS before a second lyophilisation, or not, as indicated. […] pieces of matrix were incubated in wells with confluent fibroblast cultures in serum-free medium for 1 hr to detect leachable toxicity, assessed after 20 hr to check for induction of delayed cell death.

human dermal fibroblasts [2] = test: MTS assay, acute cytotoxicity; assay type: cell-based; settings: FIGS. 30 and 31
Procedure: (§1) The MTS assay was used as described hereinbefore with certain modifications.
(§2) Firstly, two modalities were used, (i) acute cytotoxicity and (ii) effect on proliferation over 3 days.
(§3) On day −1, human dermal fibroblasts were seeded for (i) at high density (5×10^5/well) and for (ii) at low density (2.5×10^4/well).
(§4) On day 0, cultures were washed in PBS/g and exposed to the test agent diluted into PBS/g unless otherwise stated, for a test period (1-4 hr). Then the test agent was removed and culture medium replaced. For (i), cells were returned to maintenance medium (2% FBS/DMEM) followed by MTS/PMS reagent for two hours. For (ii), cells were returned to growth medium (10% FBS/DMEC) for three days. After this period, the growth medium was aspirated and replaced with maintenance medium (2% FBS/DMEM) followed by MTS/PMS reagent for two hours.
(§5) MTS colour change at 2 hours was measured as described hereinbefore.
(§6) Test agents were GTA and soaked scaffold supernatants (a), fibrinogen and fragment E Schiff base hydrolysate (b) and (c) and alginate (d).

human dermal fibroblasts [3] = test: MTS assay, effect on proliferation over 3 days; assay type: cell-based; settings: FIGS. 30 and 31
Procedure: as §1, §2, §3, §4, §5, §6

neutrophil CD18 = test: Human neutrophil activation assay (CD18, FACS); assay type: cell-based; settings: 1 hour at 37° C., FIGS. 36 and 37, read-out: ED50 neutrophil CD18 activation
Procedure: Dextran 70 and ACD were warmed to 37° C. in a water bath. 2.5 ml ACD was drawn into a 20 ml syringe. 10-15 ml of blood was drawn from a volunteer into the same syringe and inverted several times to mix. The needle was changed and 6-7 ml of Dextran 70 was drawn. Some air was drawn into the top of the syringe and mixed thoroughly by inverting the syringe several times. The syringe was turned upright, taped to the inside of a 37° C. water bath and left for approximately 1.5 hours to allow for erythrocytes to sediment, leaving a leukocyte-rich plasma upper layer.
The syringe was carefully removed from the water bath keeping upright and the top of the needle was bent through about 120°. A 15 ml polypropylene tube was placed under the tip of the needle and approximately half of the plasma was slowly removed (containing the leukocytes). The remainder of the plasma was removed into a second tube leaving the red blood cells in the syringe to be discarded. Each of the 15 ml tubes was topped up with PBS/g and inverted to mix.
The tubes were centrifuged at 1000 rpm for 10 minutes. The supernatant was removed using a 1 ml plastic pipette and the pellet was loosened. If the supernatant appeared cloudy then a check was performed under the microscope for remaining cells and centrifuged again if necessary. When the supernatant was clear it was discarded. […]

collagen was tested, and the “effect of cross-linking on cell adhesion” value (HPMEC) was “biphasic effect”.
In the case of O=CCCCC=O [glutaraldehyde], the “LD50 for cells relative to the lowest cross-linking concentration used” value [1] is reported as 5-10 times less, the “toxicity (loss of cell viability)” value [1] is reported as “acute concentration-dependent toxicity” and the “acute LD50 on HDF cytotoxicity” value (human dermal fibroblasts [2]) is reported as 50 to 150 µM. For the same molecule, the LD50 for proliferation (human dermal fibroblasts [3]) was “around 7 μM” and the EC50 (neutrophil CD18) was 150 to 500 µM.
In the case of fibrinogen, the “effect of cross-linking on cell adhesion” value (HPMEC) is reported as “continuously increases adhesion”.
For CCN=C=NCCCN(C)C.Cl [EDC, 1-(3-Dimethylamino-propyl)-3-ethyl-carbodiimide (EDC) HCl], the “LD50 for cells relative to the lowest cross-linking concentration used” value [1] was 5,000-10,000 times less and the “toxicity (loss of cell viability)” value ([1]; 1 hr exposure, measured at 2, 14 and 20 hours, FIGS. 6-7) was “acute concentration-dependent toxicity”.
